This test deals with T1, cysteamine (2-aminoethanethiol) dioxygenase (ADO) (Homo sapiens, UniProt Q96SZ5).
T1 sequence (Q96SZ5 1-270): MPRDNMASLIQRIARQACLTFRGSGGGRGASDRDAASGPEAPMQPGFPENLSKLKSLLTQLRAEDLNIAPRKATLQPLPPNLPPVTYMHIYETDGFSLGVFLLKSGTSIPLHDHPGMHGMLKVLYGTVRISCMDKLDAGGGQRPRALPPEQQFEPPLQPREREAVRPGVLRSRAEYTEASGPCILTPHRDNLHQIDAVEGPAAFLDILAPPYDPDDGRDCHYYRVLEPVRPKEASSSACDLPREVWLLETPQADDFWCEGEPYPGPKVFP
Kind of test: competition of N-Cys peptide dioxygenation by recombinant ADO. Type of test: biochemical.

Each structure is given as a SMILES string.

For the molecule `NCCS` [cysteamine], the IC50 (commonly the concentration needed to halve the response being measured) was 37 mM.

As to `N[C@@H](CS)C(=O)O` [cysteine], the IC50 came out at 13 mM.

The values are drawn from PMC6715447 (Science (New York, N.Y.), 2019).
